In patent US10570179B2, “Substituted urea depsipeptide analogs as activators of the CLPP endopeptidase” (priority 2016, dated 2020):
Values after ≈ are worked out from the molar mass of the structure shown. Read-outs that look alike come from different tables or passages of the source. Numbered stars: 1 amine (or outer) side, 2 acyl side, 3 side chain; on linkers, the order of the positions; unused ones are H or OH. Bridge positions count the residues as written; N and C are the ends. Square brackets hold non-standard residues; d marks the D form. Peptide text beside a SMILES is read from it. * marks the point of attachment. ξ: configuration not given here. Piperazine(2S-CO,4-Me) = CN1CCN[C@H](C(=O)O)C1; X6 = O=C([C@@H]1CS(=O)(=O)CCN1[*:1])[*:2]; Morpholine(3S-CO) = O=C(O)[C@@H]1COCCN1; Phe(3-Me) = Cc1cccc(C[C@H](N)C(=O)O)c1; X4 = O=C1CN([*:1])[C@H](C(=O)[*:2])CN1; NH(4-Cl-2-F-phenyl) = Fc1cc(Cl)ccc1N*; Pro(4R-Me) = C[C@H]1CN[C@H](C(=O)O)C1; Hyp = O=C(O)[C@@H]1C[C@@H](O)CN1; NH(4-Me-phenyl) = Cc1ccc(N*)cc1; ξNMeThr = CNC(C(=O)O)[C@@H](C)O; aThr = C[C@H](O)[C@H](N)C(=O)O; Pip = O=C(O)[C@@H]1CCCCN1; X3 = c1cc2c(cc1N*)OCCO2; CO = O=C([*:1])[*:2]; X2 = Fc1cc(N*)ccc1Cl

Legend:
S. aureus ClpP (Sa-ClpP) = target: T1, S. aureus ClpP (Sa-ClpP) (Staphylococcus aureus, UniProt Q2G036); experiment: Casein-BODIPY digestion assay (ClpP activation); format: biochemical
T1 construct: made in house; host or cells: E. coli BL21 (DE3)
T1 sequence (Q2G036 whole entry): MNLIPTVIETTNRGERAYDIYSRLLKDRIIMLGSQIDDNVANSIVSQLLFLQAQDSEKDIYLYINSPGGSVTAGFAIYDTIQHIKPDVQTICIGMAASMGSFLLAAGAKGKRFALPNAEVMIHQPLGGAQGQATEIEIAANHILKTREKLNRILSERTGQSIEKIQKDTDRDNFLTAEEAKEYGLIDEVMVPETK

[1] = Plasma protein binding, rapid equilibrium dialysis; format: in vitro ADME, mouse
Method: This assay determines plasma protein binding of a drug/compound and free drug concentration in plasma using rapid equilibrium dialysis, which allow the aqueous component of plasma containing the free drug/compound through a dialysis membrane (MWCO˜8,000).
Solutions were prepared at 10 mM in DMSO. Dulbecco's phosphate buffered saline (DPBS; pH 7.4) was obtained from Invitrogen (Carlsbad, Calif.). Single-Use RED (rapid equilibrium dialysis) device was obtained from Thermo scientific (Rockford, Ill.). Human plasma was obtained from Innovative Research INC (Novi, Michigan, Ill).
Sample preparation for plasma protein binding was modified from Waters' method. (Waters et al. (2008) J. Pharm. Sci. 97(10): 4586-95). The Teflon base plate with the RED inserts (MWCO 8 K) were allowed to use without any pre-condition the membrane inserts. Human plasma was thawed and centrifuged at 1000 rpm for 2 min to remove any particulates. Each compound was prepared at 10 μM in human plasma. This was done by adding 1 μL, of drug solution (10 mM in DMSO) to 1000 μL, of human plasma (0.1% DMSO). Spiked plasma solutions (300 μL) were placed into the sample chamber (indicated by the red ring) and 500 μL, of DPBS into the adjacent chamber. The plate was sealed and incubated at 37° C. on an orbital shaker (100 rpm) for 4 hours. After incubation, the seal was removed from the RED plate and the volume of the insert confirmed—little to no volume change occurred. Aliquots (50 μL) were removed from each side of the insert and dispensed into a 96-well deep plate. An equal volume of blank plasma or DPBS was added to the required wells to create analytically identical sample matrices (matrix matching). To each sample 200 μL, of ACN containing 4 μg/mL warfarin IS was added. All of the plates were sealed and mixed well at 600 rpm for 10 min and were centrifuged at 4000 rpm for 20 min. The supernatants (120 μL) were transferred to analytical plates for analysis by LCMS. Conditions for Waters ACQUITY-UPLC-MS-UV system were described separately. The test compound concentrations were quantified in both buffer and plasma chambers via peak areas relative to the internal standard. The percentage of the test compound bound to plasma was calculated on following equations: % Free=(Concentration buffer chamber/concentration plasma chamber)×100% and % Bound=100%-% Free.

S. aureus USA 300 = experiment: Minimal inhibitory concentration, microbroth dilution; format: cell-based; settings: Staphylococcus aureus
Summary of the method: (§1)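 Compound was diluted twofold in the appropriate broth. Bacterial suspension (approx. 10^5 cfu/mL) was then added in equal volume, giving a maximum test concentration of 200 μM. After aerobic overnight incubation at 37 °C, wells were inspected visually for growth.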

MRSA NRS70 = experiment: as above; format: cell-based; settings: Staphylococcus aureus
Summary of the method: as §1

S. aureus ΔClpP = experiment: as above; format: cell-based, Staphylococcus aureus; settings: MIC; ClpP inactivated
Summary of the method: as §1

[2] = USA300, MIC, read-out: Minimal Inhibitory Concentrations (μM) S. aureus USA 300
[3] = MIC, read-out: Minimal Inhibitory Concentrations (μM) MRSA NRS70
[4] = plasma binding, % Bound, mouse plasma
[5] = USA300, read-out: Minimal Inhibitory Concentrations (μM) S. aureus USA 300, MIC
[6] = read-out: Minimal Inhibitory Concentrations (μM) MRSA NRS70, MIC

Structure (SMILES)	EC50 (S. aureus ClpP (Sa-ClpP))	Mouse ([1]; mouse, 4 h, 10 μM, pH 7.4)	MIC (S. aureus USA 300; [2])	MIC (MRSA NRS70; [3])	Minimal Inhibitory Concentrations (μM) S. aureus ΔClpP (S. aureus ΔClpP)	Mouse [1, 4]	MIC (S. aureus USA 300; [5])	MIC (MRSA NRS70; [6])
Cc1cccc(C[C@H](NC(=O)Nc2ccc(Cl)cc2F)C(=O)N[C@@H]2C(=O)N3CCC[C@H]3C(=O)N(C)C([C@@H](C)O)C(=O)N[C@@H](C)C(=O)N3C[C@H](C)C[C@H]3C(=O)O[C@H]2C)c1 (stereo partly drawn) [Compound 5] ({NH(4-Cl-2-F-phenyl)-CO}-[Phe(3-Me)][aThr]P[ξNMeThr]A[Pro(4R-Me)]; ester 2-C)	0.32 ± 0.02 µM	98.6 ± 0.5%	0.078 µM (≈ 0.0646 µg/mL)	0.078 µM (≈ 0.0646 µg/mL)	>20 µM	–	–	–
Cc1ccc(NC(=O)N[C@@H](Cc2cccc(C)c2)C(=O)N[C@@H]2C(=O)N3C[C@H](O)C[C@H]3C(=O)N3CCN(C)C[C@H]3C(=O)N[C@@H](C)C(=O)N3C[C@H](C)C[C@H]3C(=O)O[C@H]2C)cc1 [Compound 30, (S)—N-((6AS,8R,12S,13S,15AS,17R,21S,23AS)-8-HYDROXY-2,13,17,21-TETRAMETHYL-6,11,15,20,23-PENTAOXOOCTADECAHYDRO-2H,6H,11H,15H-PYRAZINO[2,1-I]DIPYRROLO[2,1-C:2′,1′-L][1]OXA[4,7,10,13]TETRAAZACYCLOHEXADECIN-12-YL)-3-(M-TOLYL)-2-(3-(P-TOLYL)UREIDO)PROPANAMIDE] ({NH(4-Me-phenyl)-CO}-[Phe(3-Me)][aThr][Hyp][Piperazine(2S-CO,4-Me)]A[Pro(4R-Me)]; ester 2-C)	0.29 ± 0.29 µM	–	–	–	>20 µM	92.4 ± 2.4%	2.5 µM (≈ 2.04 µg/mL)	2.5 µM (≈ 2.04 µg/mL)
Cc1cccc(C[C@H](NC(=O)Nc2ccc(Cl)cc2F)C(=O)N[C@H]2COC(=O)[C@@H]3C[C@@H](C)CN3C(=O)[C@H](C)NC(=O)[C@@H]3CCCCN3C(=O)[C@@H]3C[C@H](N)CN3C2=O)c1 [Compound 12, (S)—N-((2R,6S,8AS,14AS,16S,20S,23AS)-16-AMINO-2,6-DIMETHYL-5,8,14,19,23-PENTAOXOOCTADECAHYDRO-1H,5H,14H,19H-PYRIDO[2,1-I]DIPYRROLO[2,1-C:2′,1′-L][1]OXA[4,7,10,13]TETRAAZACYCLOHEXADECIN-20-YL)-2-(3-(4-CHLORO-2-FLUOROPHENYL)UREIDO)-3-(M-TOLYL)PROPANAMIDE]	0.58 ± 0.02 µM	99.6 ± 0.0%	0.625 µM (≈ 0.516 µg/mL)	1.25 µM (≈ 1.03 µg/mL)	>20 µM	–	–	–
Cc1cccc(C[C@H](NC(=O)Nc2ccc3c(c2)OCCO3)C(=O)N[C@@H]2C(=O)N3C[C@H](O)C[C@H]3C(=O)N3CCCC[C@H]3C(=O)N[C@@H](C)C(=O)N3C[C@H](C)C[C@H]3C(=O)O[C@H]2C)c1 [Compound 28, (S)-2-(3-(2,3-DIHYDROBENZO[B][1,4]DIOXIN-6-YL)UREIDO)-N-((2R,6S,8AS,14AS,16R,20S,21S,23AS)-16-HYDROXY-2,6,21-TRIMETHYL-5,8,14,19,23-PENTAOXOOCTADECAHYDRO-1H,5H,14H,19H-PYRIDO[2,1-I]DIPYRROLO[2,1-C:2′,1′-L][1]OXA[4,7,10,13]TETRAAZACYCLOHEXADECIN-20-YL)-3-(M-TOLYL)PROPANAMIDE] ({X3-CO}-[Phe(3-Me)][aThr][Hyp][Pip]A[Pro(4R-Me)]; ester 2-C)	0.91 ± 0.08 µM	98.1 ± 8.1%	2.5 µM (≈ 2.11 µg/mL)	2.5 µM (≈ 2.11 µg/mL)	>20 µM	–	–	–
Cc1cccc(C[C@H](NC(=O)Nc2ccc3c(c2)OCCO3)C(=O)N[C@@H]2C(=O)N3C[C@H](O)C[C@H]3C(=O)N3CCOC[C@H]3C(=O)N[C@@H](C)C(=O)N3C[C@H](C)C[C@H]3C(=O)O[C@H]2C)c1 [Compound 27, (S)-2-(3-(2,3-DIHYDROBENZO[B][1,4]DIOXIN-6-YL)UREIDO)-N-((6AS,8R,12S,13S,15AS,17R,21S,23AS)-8-HYDROXY-13,17,21-TRIMETHYL-6,11,15,20,23-PENTAOXOOCTADECAHYDRO-6H,11H,15H-[1,4]OXAZINO[3,4-I]DIPYRROLO[2,1-C:2′,1′-L][1]OXA[4,7,10,13]TETRAAZACYCLOHEXADECIN-12-YL)-3-(M-TOLYL)PROPANAMIDE] ({X3-CO}-[Phe(3-Me)][aThr][Hyp][Morpholine(3S-CO)]A[Pro(4R-Me)]; ester 2-C)	1.2 ± 0.1 µM	93.2 ± 3.2%	20 µM (≈ 17 µg/mL)	10 µM (≈ 8.48 µg/mL)	>20 µM	–	–	–
Cc1cccc(C[C@H](NC(=O)Nc2ccc(Cl)cc2F)C(=O)N[C@@H]2C(=O)N3CCC[C@H]3C(=O)N3CC(=O)NC[C@H]3C(=O)N[C@@H](C)C(=O)N3C[C@H](C)C[C@H]3C(=O)O[C@H]2C)c1 [Compound 20, (S)-2-(3-(4-CHLORO-2-FLUOROPHENYL)UREIDO)-3-(M-TOLYL)-N-((6AS,12S,13S,15AS,17R,21S,23AS)-13,17,21-TRIMETHYL-3,6,11,15,20,23-HEXAOXOOCTADECAHYDRO-2H,6H,11H,15H-PYRAZINO[2,1-I]DIPYRROLO[2,1-C:2′,1′-L][1]OXA[4,7,10,13]TETRAAZACYCLOHEXADECIN-12-YL)PROPANAMIDE] ({NH(4-Cl-2-F-phenyl)-CO}-[Phe(3-Me)][aThr]P[X4]A[Pro(4R-Me)]; ester 2-C)	0.71 ± 0.08 µM	98.7 ± 0.1%	5 µM (≈ 4.2 µg/mL)	5 µM (≈ 4.2 µg/mL)	>20 µM	–	–	–
Cc1cccc(C[C@H](NC(=O)Nc2ccc(Cl)c(F)c2)C(=O)N[C@@H]2C(=O)N3CCC[C@H]3C(=O)N3CCCC[C@H]3C(=O)N[C@@H](C)C(=O)N3C[C@H](C)C[C@H]3C(=O)O[C@H]2C)c1 [Compound 35, (S)-2-(3-(4-CHLORO-3-FLUOROPHENYL)UREIDO)-3-(M-TOLYL)-N-((2R,6S,8AS,14AS,20S,21S,23AS)-2,6,21-TRIMETHYL-5,8,14,19,23-PENTAOXOOCTADECAHYDRO-1H,5H,14H,19H-PYRIDO[2,1-I]DIPYRROLO[2,1-C:2′,1′-L][1]OXA[4,7,10,13]TETRAAZACYCLOHEXADECIN-20-YL)PROPANAMIDE] ({X2-CO}-[Phe(3-Me)][aThr]P[Pip]A[Pro(4R-Me)]; ester 2-C)	–	99.7 ± 9.7%	0.625 µM (≈ 0.515 µg/mL)	0.313 µM (≈ 0.258 µg/mL)	>20 µM	–	–	–
Cc1ccc(NC(=O)N[C@@H](Cc2cccc(C)c2)C(=O)N[C@H]2COC(=O)[C@@H]3C[C@H](C)CN3C(=O)[C@H](C)NC(=O)[C@@H]3CCCCN3C(=O)[C@@H]3CCCN3C2=O)cc1 (stereo in doubt) [Compound 43, (S)—N-((2S,6S,8AS,14AS,20S,23AS)-2,6-DIMETHYL-5,8,14,19,23-PENTAOXOOCTADECAHYDRO-1H,5H,14H,19H-PYRIDO[2,1-I]DIPYRROLO[2,1-C:2′,1′-L][1]OXA[4,7,10,13]TETRAAZACYCLOHEXADECIN-20-YL)-3-(M-TOLYL)-2-(3-(P-TOLYL)UREIDO)PROPANAMIDE]	–	–	–	–	>20 µM	61.7 ± 1.6%	2.5 µM (≈ 1.93 µg/mL)	2.5 µM (≈ 1.93 µg/mL)
Cc1cccc(C[C@H](NC(=O)Nc2ccc(Cl)cc2F)C(=O)N[C@@H]2C(=O)N3CCC[C@H]3C(=O)N3CCS(=O)(=O)C[C@H]3C(=O)N[C@@H](C)C(=O)N3C[C@H](C)C[C@H]3C(=O)O[C@H]2C)c1 [Compound 40, (S)-2-(3-(4-CHLORO-2-FLUOROPHENYL)UREIDO)-3-(M-TOLYL)-N-((6AS,12S,13S,15AS,17R,21S,23AR)-13,17,21-TRIMETHYL-2,2-DIOXIDO-6,11,15,20,23-PENTAOXOOCTADECAHYDRO-6H,11H,15H-DIPYRROLO[2,1-C:2′,1′-L][1,4]THIAZINO[3,4-I][1]OXA[4,7,10,13]TETRAAZACYCLOHEXADECIN-12-YL)PROPANAMIDE] ({NH(4-Cl-2-F-phenyl)-CO}-[Phe(3-Me)][aThr]P[X6]A[Pro(4R-Me)]; ester 2-C)	–	99.4 ± 9.4%	1.25 µM (≈ 1.09 µg/mL)	0.625 µM (≈ 0.546 µg/mL)	>20 µM	–	–	–
